Data as given in publication PMC11973759 (Journal for Immunotherapy of Cancer, 2025).

System: M2 macrophages
Format: cell-based, human
Conditions: inhibitor 30 min, TB511 1 µM 1 h, 24 h fresh medium, n=3

Row | SMILES | Effect of inhibitor on TB511-induced apoptosis (CCK8)
1 | CN(C)CCCN1c2ccccc2Sc2ccc(Cl)cc21 [CPZ, chlorpromazine] | decreasing TB511-induced apoptosis
2 | C=C1[C@@H](C)[C@H]2[C@H](Cc3ccccc3)NC(=O)[C@]23[C@H](OC(C)=O)/C=C/[C@@](C)(O)C(=O)[C@@H](C)C/C=C/[C@H]3[C@@H]1O [CyD, cytochalasin D] | decreasing TB511-induced apoptosis
